PubChem BioAssay (NCI)
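48-hour exposure; five concentrations; linearly interpolated endpoints. Definition used: TGI = concentration required for complete inhibition of growth.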 Where a SMILES comes first, the peptide text is derived from it. The star is where a group is joined. OSu = O=C1CCC(=O)N1O*

Experiments:
Assay in all cases: NCI tumour cell line growth inhibition, 48 h
SK-MEL-28 melanoma = system: SK-MEL-28 melanoma
MDA-MB-435 = system: MDA-MB-435
MDA-MB-231 breast = system: MDA-MB-231 breast
HCC-2998 colon = system: HCC-2998 colon
MCF7 breast = system: MCF7 breast
U251 CNS = system: U251 CNS
SK-MEL-2 melanoma = system: SK-MEL-2 melanoma
OVCAR-4 ovarian = system: OVCAR-4 ovarian
ACHN renal = system: ACHN renal
NCI-H23 lung = system: NCI-H23 lung

Row | Structure (SMILES) | TGI (SK-MEL-28 melanoma) | TGI (MDA-MB-435) | TGI (MDA-MB-231 breast) | TGI (HCC-2998 colon) | TGI (MCF7 breast) | TGI (U251 CNS) | TGI (SK-MEL-2 melanoma) | TGI (OVCAR-4 ovarian) | TGI (ACHN renal) | TGI (NCI-H23 lung)
1 | COc1ccc2oc3c(C)cc4c(OC)nnc(OC)c4c3c2c1 | > 100 µM | > 100 µM | > 100 µM | > 100 µM | > 100 µM | 14.8 µM | > 100 µM | > 100 µM | > 100 µM | > 100 µM
2 | CCOC(=O)/C(C#N)=C/c1coc2cc(C)cc(C)c2c1=O | > 100 µM | > 100 µM | > 100 µM | > 100 µM |  | > 100 µM |  |  | > 100 µM | > 100 µM
3 | CCOC(=O)c1cc(-c2ccc(OC)cc2)c([N+](=O)[O-])n1C |  | > 10 µM |  | > 10 µM |  | > 10 µM | > 10 µM | > 10 µM | > 10 µM | > 10 µM
4 | CCN(CC)CCCNC(=O)c1cc(-c2nccn2C)nc2ccccc12 |  | > 100 µM | > 100 µM | > 100 µM | > 100 µM | > 100 µM | > 100 µM | > 100 µM | > 100 µM | > 100 µM
5 | N#C/C(N)=C(\C#N)NC=NCCO | > 100 µM | > 100 µM | > 100 µM | > 100 µM | > 100 µM | > 100 µM | > 100 µM | > 100 µM | > 100 µM | > 100 µM
6 | CCOC(=O)c1cn2c(n1)sc1cc(F)ccc12 | > 100 µM | > 100 µM | > 100 µM | > 100 µM | > 100 µM | > 100 µM | > 100 µM | > 100 µM | > 100 µM | > 100 µM
7 | CCOC(=O)C12OC(OCC)(CC1(OCC)OCC)C1(CC1)C2=O (stereo unspecified) | > 100 µM | > 100 µM | > 100 µM | > 100 µM | > 100 µM | > 100 µM | > 100 µM | > 100 µM | > 100 µM | > 100 µM
8 | NCCCCC(NC(=O)C(N)Cc1ccc(O)cc1)C(=O)NC(CCCCN)C(=O)NC(CCCCN)C(=O)ON1C(=O)CCC1=O (stereo unspecified) (H-YKKK-OSu; configuration not given here) | > 100 µM |  | > 100 µM | > 100 µM | > 100 µM | > 100 µM | > 100 µM |  | > 100 µM | > 100 µM
9 | N#Cc1nc(-c2cnccn2)oc1N | > 100 µM | > 100 µM | > 100 µM |  | > 100 µM | > 100 µM | > 100 µM |  | > 100 µM | 
10 | COc1cc(-c2cccs2)sc1-c1cccs1 | > 100 µM |  |  | > 100 µM |  | > 100 µM | > 100 µM | > 100 µM | > 100 µM | > 100 µM
11 | COCCOCOC(CCCCO)c1cc(C)c(O[Si](C)(C)C(C)(C)C)c(C)c1 (stereo unspecified) | 25.2 µM |  |  | 19.8 µM |  | 23.6 µM | 21.9 µM |  | 21.6 µM | 18.7 µM
12 | CON(C)C(=O)C(C)N(Cc1ccccc1)Cc1ccccc1 (stereo unspecified) | > 100 µM | > 100 µM |  | > 100 µM | > 100 µM | > 100 µM |  |  | > 100 µM | > 100 µM
13 | COc1cc2c(/C=C3/C(=O)Nc4cccc(Cl)c43)c(Cl)[nH]c2cc1C | 4.27 µM | 3.44 µM | 3.2 µM |  | 8.35 µM | 3.99 µM | 12.3 µM | 3.48 µM | 12.2 µM | 9.36 µM
14 | CCCC/C=C/C=C/C=C/CCCCCCCC(=O)OCC(COC(=O)CCCCCCC/C=C/C1C=CC(CCCC)C(C(=O)O)C1C(=O)O)OC(=O)CCCCCCC/C=C/C=C/C=C/CCCC (stereo unspecified) (tested in a mixture with another compound) | 33.3 µM |  |  | 40.7 µM |  |  | 29.5 µM | 34.7 µM | 33.2 µM | 40.3 µM
15 | O=C(O)Cc1ccc([N+](=O)[O-])cc1[N+](=O)[O-] | > 100 µM | > 100 µM | > 100 µM |  | > 100 µM | > 100 µM | > 100 µM | > 100 µM | > 100 µM | > 100 µM
16 | Cc1cc(OC(=O)Nc2cccc3ccccc23)c(C(C)C)cc1C(=S)Nc1ccccc1 | 35.3 µM | 33.5 µM |  | 38.8 µM | 34.7 µM | 35.4 µM | 28.3 µM | 35 µM | 73.5 µM | 34.3 µM
17 | C=C1c2nc3ccccc3n2C=C(c2ccc(OC)cc2)N1c1ccc(OC)cc1 |  | > 100 µM | 75.9 µM | > 100 µM | > 100 µM | 28.4 µM | > 100 µM | > 100 µM | 25 µM | 78.2 µM
18 | COc1ccc(NC(=S)c2ccc(CN3CCCCC3)s2)cc1 | 33.8 µM | 34.7 µM |  | 32.3 µM | 33.3 µM | 34.8 µM | 36.9 µM | > 100 µM | > 100 µM | 29.5 µM
19 | COC(=O)[C@]1(C)CCC[C@@]2(C)C1CC[C@@]13C=C(C(C)C)[C@@H](CC1=O)CC23 (stereo partly specified) | > 100 µM | > 100 µM | 95.7 µM | > 100 µM | 64 µM | 39.2 µM |  | > 100 µM | 45.1 µM | > 100 µM
20 | Cc1ccc2nc(-c3ccccc3)cc(=O)n2c1 | > 100 µM | > 100 µM | > 100 µM | > 100 µM | > 100 µM | > 100 µM |  | > 100 µM | > 100 µM | > 100 µM
21 | CC1(C)[C@@H](Cn2cc(I)c(=O)[nH]c2=O)CC[C@@]1(C)CO | > 100 µM | > 100 µM | > 100 µM | > 100 µM |  | > 100 µM | > 100 µM | > 100 µM | > 100 µM | 
22 | Nc1nc(Cl)cc(OCC2(CO)CC=CC2)n1 | > 100 µM | > 100 µM |  | > 100 µM | > 100 µM | > 100 µM |  | > 100 µM | > 100 µM | > 100 µM
23 | Nc1ncc2c(n1)-c1ccccc1OC2N1CCCCC1 (stereo unspecified) |  | > 100 µM | > 100 µM |  | > 100 µM | > 100 µM | > 100 µM | > 100 µM | > 100 µM | > 100 µM
